Measured values taken from patent publication US20020137929A1, “1 - (3-heterocyclylphenyl) isothiourea, -isourea, -guanidine and -amidine herbicidal agents” (Intellectual Property Department, BASF Aktiengesellschaft, priority 1998, published 2002).

Key:
AMBEL (Ragweed, Common) = assay: Preemergence herbicidal evaluation; format: in vivo, Ambrosia artemisifolia; settings: rated 4-5 weeks after treatment
Procedure, shortened: (§1)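 Rating at 4–5 wk post-spray on a 0–9 visual scale vs control. Application: aqueous acetone, ~0.0156–0.500 kg/ha, to soil surface after seeding, preemergence.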

[1] = test system: ECHORC (Watergrass (Calif.)); assay: Postemergence weed control under flooded paddy conditions; format: in vivo, Echinochloa oryzoides; settings: postemergence weeds, rated 3 to 4 weeks after treatment
Procedure, shortened: (§2)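 With weeds 3 to 5 cm tall and rice at the 1.5 to 2.5 leaf stage, containers were flooded and water held 1.5 to 3 cm above soil. Compounds in 50/50 v/v aqueous/acetone went into the flood water at about 0.0313 to 0.500 kg/ha a.i. Effects were visually rated 0–9 against controls after three to four weeks in the greenhouse.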

[2] = test system: TRZAWR (Wheat, Winter, cv Riband); assay: Postemergence herbicidal evaluation; format: in vivo, Triticum aestivum; settings: postemergence
Procedure, shortened: (§3)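 Compound is applied as a foliar spray to seedlings about two weeks old, formulated in equal parts acetone and water with 0.5% TWEEN 20 and delivered at 40 psi to give about 0.0156–0.500 kg per hectare. Injury is rated visually 0–9 after four to five weeks.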

GALAP (Galium) = assay: Preemergence herbicidal evaluation; format: in vivo, Galium aparine; settings: rated 4-5 weeks after treatment
Procedure, shortened: as §1

ABUTH (Velvetleaf) = assay: Postemergence herbicidal evaluation; format: in vivo, Abutilon theophrasti; settings: postemergence
Procedure, shortened: as §3

SETVI (Foxtail, Green) [3] = assay: Preemergence herbicidal evaluation; format: in vivo, Setaria viridis; settings: rated 4-5 weeks after treatment
Procedure, shortened: as §1

[4] = test system: SAGPY (Arrowhead (Pygmaea)); assay: Postemergence weed control under flooded paddy conditions; format: in vivo, Sagittaria pygmaea; settings: postemergence weeds, rated 3 to 4 weeks after treatment
Procedure, shortened: as §2

[5] = test system: GLXMAW (Soybean, Williams); assay: Postemergence herbicidal evaluation; format: in vivo, Glycine max, (L.) Merr. cv Williams; settings: postemergence
Procedure, shortened: as §3

ZEAMX (Corn, Field) = assay: Postemergence herbicidal evaluation; format: in vivo, Zea mays; settings: postemergence
Procedure, shortened: as §3

CYPIR (Rice Flatsedge) = assay: Preemergence weed control under flooded paddy conditions; format: in vivo, Cyperus iria; settings: rated 3-4 weeks after treatment
Procedure, shortened: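 Silt loam, seeds in top 0.5 cm; flood held 1.5-3 cm; test cpd as acetone/water 50/50 into flood water, ~0.0313-0.500 kg/ha a.i.; greenhouse 3-4 wk; visual 0-9 score vs control.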

SETVI (Foxtail, Green) [6] = assay: Postemergence herbicidal evaluation; format: in vivo, Setaria viridis; settings: postemergence
Procedure, shortened: as §3

[7] = test system: CHEAL (Lambsquarters, Common); assay: Postemergence herbicidal evaluation; format: in vivo, Chenopodium album; settings: postemergence
Procedure, shortened: as §3

CYPSE (Flatsedge) = assay: Postemergence weed control under flooded paddy conditions; format: in vivo, Cyperus serotinus; settings: postemergence weeds, rated 3 to 4 weeks after treatment
Procedure, shortened: as §2

ORYSAT (Rice, Tebonnet) = assay: Postemergence herbicidal evaluation; format: in vivo, Oryza sativa, (L.) Tebonnet; settings: postemergence
Procedure, shortened: as §3

SMILES: Cn1c(C(F)(F)F)cc(=O)n(-c2cc(N=C3SCC(=O)N3C3CCOC3=O)c(Cl)cc2F)c1=O (centres unmarked) [Compound 73]
- Preemergence herbicidal rating AMBEL (AMBEL (Ragweed, Common); rate 0.0156 kg/ha): 1.0
- Preemergence herbicidal rating AMBEL (AMBEL (Ragweed, Common); rate 0.0313 kg/ha): 0.0
- Preemergence herbicidal rating AMBEL (AMBEL (Ragweed, Common); rate 0.0625 kg/ha): 4.0
- Preemergence herbicidal rating AMBEL (AMBEL (Ragweed, Common); rate 0.1250 kg/ha): 9.0
- Preemergence herbicidal rating AMBEL (AMBEL (Ragweed, Common); rate 0.2500 kg/ha): 9.0
- Herbicidal rating ECHORC ([1]; Rate 0.1250 kg/ha): 3.0
- Herbicidal rating ECHORC ([1]; Rate 0.2500 kg/ha): 7.0
- TRZAWR herbicidal rating ([2]; rate 0.0158 kg/ha): 3.5
- TRZAWR herbicidal rating ([2]; rate 0.0315 kg/ha): 4.0
- TRZAWR herbicidal rating ([2]; rate 0.0630 kg/ha): 5.0
- Preemergence herbicidal rating GALAP (GALAP (Galium); rate 0.0156 kg/ha): 0.0
- Preemergence herbicidal rating GALAP (GALAP (Galium); rate 0.0313 kg/ha): 0.0
- Preemergence herbicidal rating GALAP (GALAP (Galium); rate 0.0625 kg/ha): 0.0
- Preemergence herbicidal rating GALAP (GALAP (Galium); rate 0.1250 kg/ha): 4.0
- Preemergence herbicidal rating GALAP (GALAP (Galium); rate 0.2500 kg/ha): 9.0
- ABUTH herbicidal rating (ABUTH (Velvetleaf); rate 0.0158 kg/ha): 9.0
- ABUTH herbicidal rating (ABUTH (Velvetleaf); rate 0.0315 kg/ha): 9.0
- ABUTH herbicidal rating (ABUTH (Velvetleaf); rate 0.0630 kg/ha): 9.0
- Preemergence herbicidal rating SETVI (SETVI (Foxtail, Green) [3]; rate 0.0156 kg/ha): 0.0
- Preemergence herbicidal rating SETVI (SETVI (Foxtail, Green) [3]; rate 0.0313 kg/ha): 1.0
- Preemergence herbicidal rating SETVI (SETVI (Foxtail, Green) [3]; rate 0.0625 kg/ha): 0.0
- Preemergence herbicidal rating SETVI (SETVI (Foxtail, Green) [3]; rate 0.1250 kg/ha): 9.0
- Preemergence herbicidal rating SETVI (SETVI (Foxtail, Green) [3]; rate 0.2500 kg/ha): 9.0
- Herbicidal rating SAGPY ([4]; Rate 0.1250 kg/ha): 3.0
- Herbicidal rating SAGPY ([4]; Rate 0.2500 kg/ha): 4.0
- GLXMAW herbicidal rating ([5]; rate 0.0158 kg/ha): 6.0
- GLXMAW herbicidal rating ([5]; rate 0.0315 kg/ha): 5.5
- GLXMAW herbicidal rating ([5]; rate 0.0630 kg/ha): 7.5
- ZEAMX herbicidal rating (ZEAMX (Corn, Field); rate 0.0158 kg/ha): 4.5
- ZEAMX herbicidal rating (ZEAMX (Corn, Field); rate 0.0315 kg/ha): 4.5
- ZEAMX herbicidal rating (ZEAMX (Corn, Field); rate 0.0630 kg/ha): 5.0
- CYPIR herbicidal effect rating (CYPIR (Rice Flatsedge); 0.1250 kg/ha): 0.0
- CYPIR herbicidal effect rating (CYPIR (Rice Flatsedge); 0.2500 kg/ha): 6.0
- SETVI herbicidal rating (SETVI (Foxtail, Green) [6]; rate 0.0158 kg/ha): 1.0
- SETVI herbicidal rating (SETVI (Foxtail, Green) [6]; rate 0.0315 kg/ha): 2.0
- SETVI herbicidal rating (SETVI (Foxtail, Green) [6]; rate 0.0630 kg/ha): 7.0
- CHEAL herbicidal rating ([7]; rate 0.0158 kg/ha): 4.0
- CHEAL herbicidal rating ([7]; rate 0.0315 kg/ha): 9.0
- CHEAL herbicidal rating ([7]; rate 0.0630 kg/ha): 9.0
- Herbicidal rating CYPSE (CYPSE (Flatsedge); Rate 0.1250 kg/ha): 2.0
- Herbicidal rating CYPSE (CYPSE (Flatsedge); Rate 0.2500 kg/ha): 4.0
- ORYSAT herbicidal rating (ORYSAT (Rice, Tebonnet); rate 0.0158 kg/ha): 2.5
- ORYSAT herbicidal rating (ORYSAT (Rice, Tebonnet); rate 0.0315 kg/ha): 3.0
- ORYSAT herbicidal rating (ORYSAT (Rice, Tebonnet); rate 0.0630 kg/ha): 4.0
